# Read-outs that look alike come from different tables or passages of the source.
# Tests used:
# GTL16 cells = assay: GTL16 cell viability assay (CellTiter Glo); details: read-out: GTL-16 Proliferation IC50; GTL16 cells, 24 hours
# Description: GTL16 Cell Viability Assay:
# GTL16 expresses high level of c-Met receptor tyrosine kinase due to the gene amplification.
# GTL16 cells were seeded in DMEM medium with 10% FBS and 1% Pene. & Strep. at 5000 cells/well/90 μL in 96 well plate and incubated overnight for attachment at 37° C. in 5% CO2 incubator. 10-fold serials dilutions of compounds were added to the cell as 10 μL/well. The final assay volume was 100 μl/well. The assay plates were incubated at 37° C. in 5% CO2 incubator for 24 hours. […] The chemiluminescent light unit was read in Envision from Perkin Elmer. All the tests were run at triplicates. The IC50 was calculated using Spotfire software.
# human platelet PDE3 = human platelet PDE3 (Homo sapiens (Human), UniProt Q14432); assay: hPDE3 assay ([3H]cAMP scintillation proximity assay); format: biochemical
# Description: Here, compounds of formula I were screened for their ability to inhibit human PDE3 in the assay based on Amersham Pharmacia Biotech's Phosphodiesterase (PDE) [^3H]-adenosine 3′,5′ cyclic phosphate ([^3H]cAMP) Scintillation Proximity Assay (SPA). The assay is based on the hydrolysis of [^3H]cAMP, by human platelet PDE3, to [^3H]5′-adenoside monophosphate (5′-AMP). The [^3H]5′-AMP is specifically captured by yttrium silicate SPA beads in the presence of zinc sulphate.
# • Optiplate and TopSeal-S (Can berra Packard) • Human platelet PDE3 (partially purified from human platelets)—a titration curve of human platelet PDE3 activity was performed to optimise the concentration of hPDE3 required in the assay. • Yttrium silicate SPA beads and [^3H]cAMP (Amersham) • Tris-Base, magnesium chloride, ethylenediaminetetraacetic acid (di-sodium salt), bovine serum albumin BSA and cAMP (Sigma) Solutions and Buffers: • Assay buffer: 7.56 g Tris-Base was dissolved in approximately 800 mL distilled water and the pH adjusted to 7.5 with 1 M hydrochloric acid. 10.3 mL 1 M magnesium chloride and 4.25 mL 0.5 M EDTA were added. The solution was made to 1 L with distilled water and stored at 4° C. On day of use 18 mL of the above solution was removed and 2 mL 5 mg/ml BSA were added thereto. • Enzyme buffer: 10 mM Tris-HCl at pH 7.5, 1 mM EDTA • Yttrium silicate SPA beads: 1 vial was reconstituted in 28 mL distilled water and stored at 4° C. Assay
# The assay was performed in a final volume of 100 μL per well of an Optiplate (Canberra Packard). A 10 μL aliquot of the test compound dissolved in DMSO/distilled water was placed in a well of an Optiplate plate, followed by the addition of 80 μL ‘Assay mix’ (5.5 μL [^3H]cAMP and 88 μL “cold” cAMP were diluted to 8.8 mL using assay buffer). The reaction was started by adding 10 μL hPDE3 (50 μL stock hPDE3 solution was diluted 50 fold to 2.5 mL using enzyme buffer). The plate was incubated at room temperature for 30 min, the reaction was then terminated by the addition of 50 μL Yttrium silicate SPA beads (pre-warmed to room temperature) to all wells. […] The plate was sealed using TopSeal-S according to the manufacturer's instructions and counted using a Packard TopCount, each well being counted for 1 min. IC50 values were determined using non-linear regression.
# human platelet PDE3, sequence (Q14432 whole entry): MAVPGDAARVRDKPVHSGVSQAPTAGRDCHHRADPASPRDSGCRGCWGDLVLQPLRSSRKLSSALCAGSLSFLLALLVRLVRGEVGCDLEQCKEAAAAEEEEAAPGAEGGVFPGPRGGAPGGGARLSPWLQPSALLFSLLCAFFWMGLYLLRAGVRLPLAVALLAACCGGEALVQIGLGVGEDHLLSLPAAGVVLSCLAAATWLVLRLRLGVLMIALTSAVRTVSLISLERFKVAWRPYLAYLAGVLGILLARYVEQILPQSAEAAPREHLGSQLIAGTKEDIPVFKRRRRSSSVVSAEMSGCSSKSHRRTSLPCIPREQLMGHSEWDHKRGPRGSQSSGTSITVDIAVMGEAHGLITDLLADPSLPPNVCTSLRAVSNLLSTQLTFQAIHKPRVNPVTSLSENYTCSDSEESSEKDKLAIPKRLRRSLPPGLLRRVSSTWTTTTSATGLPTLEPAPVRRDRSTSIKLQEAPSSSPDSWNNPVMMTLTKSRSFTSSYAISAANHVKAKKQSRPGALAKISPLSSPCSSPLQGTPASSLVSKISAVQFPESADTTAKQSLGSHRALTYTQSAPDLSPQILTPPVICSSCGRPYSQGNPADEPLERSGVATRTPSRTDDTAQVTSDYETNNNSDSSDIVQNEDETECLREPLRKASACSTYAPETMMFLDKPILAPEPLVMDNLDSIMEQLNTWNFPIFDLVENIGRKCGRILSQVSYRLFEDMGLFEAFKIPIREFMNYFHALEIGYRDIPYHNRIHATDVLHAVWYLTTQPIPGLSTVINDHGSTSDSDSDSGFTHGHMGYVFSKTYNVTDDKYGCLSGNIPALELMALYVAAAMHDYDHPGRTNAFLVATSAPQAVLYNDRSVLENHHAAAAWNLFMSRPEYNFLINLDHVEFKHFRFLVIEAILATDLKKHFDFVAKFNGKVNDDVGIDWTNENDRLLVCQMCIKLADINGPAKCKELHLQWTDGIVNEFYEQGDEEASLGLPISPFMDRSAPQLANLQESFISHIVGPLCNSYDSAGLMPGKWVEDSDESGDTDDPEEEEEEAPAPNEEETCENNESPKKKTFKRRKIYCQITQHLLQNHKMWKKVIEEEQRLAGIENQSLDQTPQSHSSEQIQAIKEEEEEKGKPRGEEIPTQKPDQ
Compound,IC50 (human platelet PDE3; human platelet PDE3),IC50 (GTL16 cells),IC50 (human platelet PDE3)
"Cn1cc(-c2ccc3nnc(Sc4ccc5ncc(NC6CC(C)(C)NC(C)(C)C6)cc5c4)n3c2)cn1 [Example 62, 6-(6-(1-Methyl-1H-pyrazol-4-yl)-[1,2,4]triazolo[4,3-a]pyridin-3-ylthio)-N-(2,2,6,6-tetramethylpiperidin-4-yl)quinolin-3-amine]",18 µM,73 nM,–
"Cn1cc(-c2ccc3nnc(Sc4ccc5ncc(N6CCC(N)CC6)cc5c4)n3c2)cn1 [Example 21, 1-(6-(6-(1-Methyl-1H-pyrazol-4-yl)-[1,2,4]triazolo[4,3-a]pyridin-3-ylthio)quinolin-3-yl)piperidin-4-amine]",–,36 nM,–
"Cn1cc(-c2ccc3nnc(Sc4ccc5ncc(NC6CCNCC6)cc5c4)n3c2)cn1 [Example 23, 6-(6-(1-Methyl-1H-pyrazol-4-yl)-[1,2,4]triazolo[4,3-a]pyridin-3-ylthio)-N-(piperidin-4-yl)quinolin-3-amine]",30 µM,289 nM,–
"Cn1cc(-c2cc(F)c3nnc(Sc4ccc5ncc(N6CCOCC6)cc5c4)n3c2)cn1 [Example 70, 4-(6-(8-Fluoro-6-(1-methyl-1H-pyrazol-4-yl)-[1,2,4]triazolo[4,3-a]pyridin-3-ylthio)quinolin-3-yl)morpholine]",–,1 nM,–
"Cn1cc(-c2cc(F)c3nnc(Sc4ccc5ncc(NCCO)cc5c4)n3c2)cn1 [Example 54, 2-(6-(8-Fluoro-6-(1-methyl-1H-pyrazol-4-yl)-[1,2,4]triazolo[4,3-a]pyridin-3-ylthio)quinolin-3-ylamino)ethanol]",–,14 nM,–
"Cn1cc(-c2ccc3nnc(Sc4ccc5ncc(NCCO)cc5c4)n3c2)cn1 [Example 53, 2-(6-(6-(1-methyl-1H-pyrazol-4-yl)-[1,2,4]triazolo[4,3-a]pyridin-3-ylthio)quinolin-3-ylamino)ethanol]",14 µM,17 nM,–
"C/C(=N\O)c1ccc2nnc(Sc3ccc4ncc(N5CC[C@H](N(C)C)C5)cc4c3)n2c1 [Example 82, (S,E)-1-(3-(3-(3-(Dimethylamino)pyrrolidin-1-yl)quinolin-6-ylthio)-[1,2,4]triazolo[4,3-a]pyridin-6-yl)ethanone oxime]",–,–,11 µM
"OCCn1cc(-c2cnc3nnn(Cc4ccc5ncccc5c4)c3n2)cn1 [Comparator No. 3 (PF-04217903), 2-[4-(3-Quinolin-6-ylmethyl-3H-[1,2,3]triazolo[4,5-b]pyrazin-5-yl)-pyrazol-1-yl]-ethanol, reference compound]",–,< 10 nM,–
"COC1CCN(c2cnc3ccc(Sc4nnc5ccc(-c6cnn(C)c6)cn45)cc3c2)CC1 [Example 43, 3-(4-Methoxypiperidin-1-yl)-6-(6-(1-methyl-1H-pyrazol-4-yl)-[1,2,4]triazolo[4,3-a]pyridin-3-ylthio)quinoline]",–,0.3 nM,–
"C/C(=N\OCCO)c1ccc2nnc(Sc3ccc4ncc(N5CCOCC5)cc4c3)n2c1 [Example 78, (E)-1-(3-((3-Morpholin-4-yl-quinolin-6-yl)thio)-[1,2,4]triazolo[4,3-a]pyridin-6-yl)ethanone O-(2-hydroxyethyl)oxime]",28 µM,–,–
"CN1CCN(c2cnc3ccc(Sc4nnc5ccc(-c6cnn(C)c6)cn45)cc3c2)CC1 [Example 74, 3-(4-Methyl-piperazin-1-yl)-6-[6-(1-methyl-1H-pyrazol-4-yl)-[1,2,4]triazolo[4,3-a]pyridin-3-ylsulfanyl]-quinoline]",–,2 nM,–
"C/C(=N\OCCO)c1ccc2nnc(Sc3ccc4ncc(CN5CCOCC5)cc4c3)n2c1 [Example 80, (E)-1-(3-((3-(Morpholin-4-yl-methyl)quinolin-6-yl)thio)-[1,2,4]triazolo[4,3-a]pyridin-6-yl)ethanone O-(2-hydroxyethyl)oxime]",30 µM,–,–
"Cn1cc(-c2ccc3nnc(Sc4ccc5ncc(N6CCCC(N)C6)cc5c4)n3c2)cn1 (stereo not shown) [Example 10, 1-(6-(6-(1-Methyl-1H-pyrazol-4-yl)-[1,2,4]triazolo[4,3-a]pyridin-3-ylthio)quinolin-3-yl)piperidin-3-amine]",–,21 nM,–

# Now from value to compound, other results behind:
IC50 (human platelet PDE3; human platelet PDE3),Compound,IC50 (GTL16 cells),IC50 (human platelet PDE3)
20 µM,"C/C(=N\OCCO)c1ccc2nnc(Sc3ccc4ncc(NC5CCOCC5)cc4c3)n2c1 [Example 83, (E)-1-(3-(3-(Tetrahydro-2H-pyran-4-ylamino)quinolin-6-ylthio)-[1,2,4]triazolo[4,3-a]pyridin-6-yl)ethanone O-2-hydroxyethyl oxime]",1 nM,–
6 µM,"C/C(=N\O)c1ccc2nnc(Sc3ccc4ncc(NC5CCOCC5)cc4c3)n2c1 [Example 84, (E)-1-(3-(3-(Tetrahydro-2H-pyran-4-ylamino)quinolin-6-ylthio)-[1,2,4]triazolo[4,3-a]pyridin-6-yl)ethanone oxime]",3 nM,–
30 µM,"Cn1cc(-c2cc(F)c3nnc(Sc4ccc5ncc(N6CCC(O)CC6)cc5c4)n3c2)cn1 [Example 50, 1-(6-((8-Fluoro-6-(1-methyl-1H-pyrazol-4-yl)-[1,2,4]triazolo[4,3-a]pyridin-3-yl)thio)quinolin-3-yl)piperidin-4-ol]",1 nM,–
30 µM,"CN1CCC(Nc2cnc3ccc(Sc4nnc5c(F)cc(-c6cnn(C)c6)cn45)cc3c2)CC1 [Example 8, {6-[8-Fluoro-6-(1-methyl-1H-pyrazol-4-yl)-[1,2,4]triazolo[4,3-a]pyridin-3-ylsulfanyl]-quinolin-3-yl}-(1-methyl-piperidin-4-yl)-amine]",–,–
12 µM,"C/C(=N\O)c1ccc2nnc(Sc3ccc4ncc(N5CCOCC5)cc4c3)n2c1 [Example 77, (E)-1-(3-((3-Morpholin-4-yl-quinolin-6-yl)thio)-[1,2,4]triazolo[4,3-a]pyridin-6-yl)ethanone oxime]",8 nM,–
30 µM,"C/C(=N\OCCO)c1cc(F)c2nnc(Sc3ccc4ncc(N5CC[C@H](N(C)C)C5)cc4c3)n2c1 [Example 85, (S,E)-1-{3-[3-(3-dimethylamino-pyrrolidin-1-yl)-quinolin-6-ylthio]-8-fluoro-[1,2,4]triazolo[4,3-a]pyridin-6-yl}ethanone O-(2-hydroxy-ethyl)-oxime]",23 nM,–
24 µM,"CN(C)[C@H]1CCN(c2cnc3ccc(Sc4nnc5c(F)cc(-c6cnn(C)c6)cn45)cc3c2)C1 [Example 13, (S)-1-(6-(8-Fluoro-6-(1-methyl-1H-pyrazol-4-yl)-[1,2,4]triazolo[4,3-a]pyridin-3-ylthio)quinolin-3-yl)-N,N-dimethylpyrrolidin-3-amine]",0.4 nM,–
30 µM,"CN1CCN(Cc2cnc3ccc(Sc4nnc5ccc(-c6cnn(C)c6)cn45)cc3c2)CC1 [Example 6, 6-(6-(1-Methyl-1H-pyrazol-4-yl)-[1,2,4]triazolo[4,3-a]pyridin-3-ylthio)-3-((4-methylpiperazin-1-yl)methyl)quinoline]",27 nM,–
7 µM,Cn1cc(-c2ccc3nnc(Sc4ccc5ncc(NC6CCOC6)cc5c4)n3c2)cn1 (stereo not shown) [Example 51],9 nM,–
12 µM,"Cn1cc(-c2ccc3nnc(Sc4ccc5ncc(N6CCC7(CCOCC7)C6)cc5c4)n3c2)cn1 [Example 47, 2-(6-((6-(1-Methyl-1H-pyrazol-4-yl)-[1,2,4]triazolo[4,3-a]pyridin-3-yl)thio)quinolin-3-yl)-8-oxa-2-azaspiro[4.5]decane]",3 nM,–
30 µM,"CN1CCC(Nc2cnc3ccc(Sc4nnc5ccc(-c6cnn(C)c6)cn45)cc3c2)CC1 [Example 15, (1-Methyl-piperidin-4-yl)-{6-[6-(1-methyl-1H-pyrazol-4-yl)-[1,2,4]triazolo[4,3-a]pyridin-3-ylsulfanyl]-quinolin-3-yl}-amine]",2 nM,–
12 µM,"Cn1cc(-c2ccc3nnc(Sc4ccc5ncc(N6CCC(F)(F)CC6)cc5c4)n3c2)cn1 [Example 61, 3-(4,4-Difluoro-piperidin-1-yl)-6-[6-(1-methyl-1H-pyrazol-4-yl)-[1,2,4]triazolo[4,3-a]pyridin-3-ylsulfanyl]-quinoline]",2 nM,–
14 µM,"C/C(=N\OCCO)c1ccc2nnc(Sc3ccc4ncc(N5CCC(O)CC5)cc4c3)n2c1 [Example 76, (E)-1-(3-((3-(4-Hydroxypiperidin-1-yl)quinolin-6-yl)thio)-[1,2,4]triazolo[4,3-a]pyridin-6-yl)-ethanone O-(2-hydroxyethyl)oxime]",54 nM,–
10 µM,"Cn1cc(-c2ccc3nnc(Sc4ccc5ncc(NC6CCOCC6)cc5c4)n3c2)cn1 [Example 68, {6-[6-(1-Methyl-1H-pyrazol-4-yl)-[1,2,4]triazolo[4,3-a]pyridin-3-ylsulfanyl]-quinolin-3-yl}-(tetrahydro-pyran-4-yl)-amine]",3 nM,–

# From patent US9062045B2, “Triazolopyridine compounds” (Novartis AG, priority 2012, dated 2015)
